Assay results from patent US10617675B2, “Hepatitis C virus inhibitors” (BRISTOL-MYERS SQUIBB COMPANY, priority 2015, dated 2020).
pEC50: −log10 of the molar value. Like-named read-outs stand apart in the source and are kept apart here.

Columns and labels:
HCV = test: Relative (synergistic) activity of separated diastereomers; assay type: cell-based, Hepatitis C virus; conditions: comparison within the set of three diastereomers; first eluting isomer
[1] = tested on: HCV genotype-1a variant with glutamine 30 changed to glutamate in the NS5A protein; conditions: genotype-1a Q30E NS5A variant, cited from earlier work
[2] = tested on: HCV genotype-1a variant with glutamine 30 changed to glutamate in the NS5A protein; assay type: cell-based, Hepatitis C virus; conditions: genotype-1a Q30E; BMS-790052 titrated with 200 nM P-55 versus singly
Text: The NS5A synergistic inhibitory effect of test compounds can be determined using various amounts of an NS5A-targeting compound with titration of a second compound of interest. […] The test compound can be chosen from compounds listed above or from others present in the literature.

CN(C)C(=O)OC(C)(C(=O)N[C@H](c1ncc(-c2ccc(-c3ccc(-c4cnc([C@@H](NC(=O)C(C)(OC(=O)N(C)C)C(C)(C)CF)C(C)(C)C)[nH]4)cc3)cc2)[nH]1)C(C)(C)C)C(C)(C)CF (single isomer, unassigned) [Example Y1]
activity relative to the other separated diastereomers (HCV): most active of the set

CC(C)(C)[C@H](NC(=O)C1(CO)OC2CCC1CC2)c1nc(-c2ccc(-c3ccc(-c4c[nH]c([C@@H](NC(=O)C5(CO)OC6CCC5CC6)C(C)(C)C)n4)cc3)cc2)c[nH]1 (single isomer, unassigned) [Example Y14]
activity relative to the other separated diastereomers (HCV): most active isomer

COC(=O)N[C@H](C(=O)N1CCC[C@H]1c1nc(-c2ccc(-c3ccc(-c4c[nH]c([C@@H]5CCCN5C(=O)[C@@H](NC(=O)OC)C(C)C)n4)cc3)cc2)c[nH]1)C(C)C [BMS-790052]
pEC50 ([1]; P-55 fixed at 200 nM, read-out: EC50 of BMS-790052 in the presence of a fixed amount of P-55): ~8.70 | pEC50 ([1]; single agent, read-out: EC50, compound titrated singly): ~6.70 | reciprocal synergistic inhibitory effect for the combination [2]: ~100 fold

COC(=O)N1CC(F)(F)CC1(C)C(=O)N[C@H](c1nc2ccc(-c3cnc(-c4ccc5nc([C@@H](NC(=O)C6(C)CC(F)(F)CN6C(=O)OC)C(C)(C)C)[nH]c5c4)cn3)cc2[nH]1)C(C)(C)C (stereo partly shown) [Example Y20]
activity relative to the other separated diastereomers (HCV): most synergistically active of the three

CC(C)(C)[C@H](NC(=O)C(C)(OC(=O)N1CCC1)C1(C)CC1)c1nc(-c2ccc(-c3ccc(-c4c[nH]c([C@@H](NC(=O)C(C)(OC(=O)N5CCC5)C5(C)CC5)C(C)(C)C)n4)cc3)cc2)c[nH]1 (stereo partly shown) [Example Y19a]
activity relative to the other separated diastereomers (HCV): most synergistically active of the three
